In patent publication US10406150B2, “Method for treatment of primary hormone resistant endometrial and breast cancers” (Lipoxen Technologies Limited, priority 2014, dated 2019):

Test system: secondary PR negative Ishikawa cells
Assay: Model of secondary PR-negative endometrial cancer (progestin-resistant Ishikawa xenograft)
Assay type: in vivo, mice
Conditions: day 7; MPA 250 mg/kg/day i.p. 5 days per week, SC 0.3 mg/kg i.m. each alternate day; mean ± SEM
Experimental: When the surviving cells had grown to a high density but were still less than confluent, cells were subcloned using 0.02% EDTA and 0.25% trypsin prepared in Hanks' balanced salt solution. MPA-containing medium was replaced every 2-3 days. Cells proliferating in 10 μM MPA with the same doubling time as the initial Ishikawa cells proliferating in the medium without MPA, were considered as secondary progestin-resistant Ishikawa cells.
2×10^6 secondary PR negative Ishikawa cells were inoculated into the flanks of MF-1 female nude mice in 100 μl Matrigel.
1) Vehicle control group: vehicle only, −0.9% sodium chloride for injection i.m each alternate day and i.p. for 5 days per week.
2) MPA only control group: medroxyprogesterone acetate (MPA) (250 mg/kg/day) i.p. for 5 days per week.
Tumors were measured with vernier calipers weekly. Tumor volumes (mm^3) were calculated using the modified ellipsoid formula: (length (mm)×width (mm)^2)/2. The ratio (percentage) of “Tumor volume at day n” to “tumor volume at day “0” was calculated for each animal. At the end of the experiments (day 35) animals were euthanized.

With `CC(=O)O[C@]1(C(C)=O)CC[C@H]2[C@@H]3C[C@H](C)C4=CC(=O)CC[C@]4(C)[C@H]3CC[C@@]21C` [MPA, medroxyprogesterone acetate] the “Tumor volume at day n/tumor volume at day “0”” value was 170 ± 19%.
